According to patent US20200206198A1, “CFTR CHANNEL ACTIVATOR FOR USE IN THE TREATMENT AND/OR PREVENTION OF GLUTEN SENSITIVITY CONDITIONS” (priority 2017, published 2020):

Columns and labels:
[1] = system: Caco-2 cells; assay: Endosomal trafficking proteins in Caco-2 cells (immunoblot, endosomal fractions); assay type: cell-based, human; conditions: lost if 3-MA or CFTR inhibitor added
Description: (§1) Human colon adenocarcinoma-derived Caco-2 and T84 cells were obtained from the ATCC. Cells were maintained in T25 flask in Modified Eagle Medium (MEM) for Caco-2, or Ham's F12+DMEM (1:1) for T84, supplemented with 10% fetal bovine serum (FBS), 2 mM Glutamine+1% Non Essential Amino Acids (NEAA) and the antibiotics penicillin\streptomycin (100 units/ml) (all reagents from Lonza) (Luciani, A., et al. 2010. Cells were grown in Transwells (Corning, 3470 or 3460) under the normal condition (Luciani, A., et al. 2012). Briefly, 8×10^4 or 5×10^5 cells were seeded in 6.5-mm diameter or 12-mm diameter, respectively, and grown until the RT reached 800 to 1,200 Ω·cm2. Transwells with a pore size of 0.4 μm were used. Medium in both the apical and basolateral chambers was changed every other day. Cells were treated with 20 μg/ml of either α-gliadin peptide P31-43 or […] or scrambled PGAV or modified P31-43 either biotin-tagged or not, for different time point (from 1 h short challenge up to 24 h). Cells were also treated with 50 or 100 μg/ml of P57-68 or PGAV peptides for 3 h. Caco-2 or T84 cells were also treated with: CFTR potentiators VX-770 (10 μM) or VX-532 (20 μM) (Selleck chemicals) or Genistein (10 μM) (Sigma-Aldrich) or in presence or absence of CFTR inhibitor172 (CFTRinh172, 20 μM) or 3-methyl-adenine (3-MA, 20 μM) (Calbiochem), Z-DON (20 nM, Zedira) or BAPTA-AM (10 μM, Calbiochem).
The whole lysate or membrane fraction proteins of cell lines and mice intestine homogenates were obtained from treated and untreated cells or mice as described. The equal amount of protein were resolved by SDS-PAGE gel and blotted with antibodies against: SQSTM1, (Sigma Aldrich, 108k4767) 1:1000, PPARγ (Santa Cruz Biotechnology, sc7273) 1:500, BECN1 (Abcam, ab58878) 1:1000, CFTR clone M3A7 (Abcam, ab4067) 1:500, phospho-ERK1/2 (php42/44, Cell Signaling Technology, #91101) 1:1000, UVRAG (Santa Cruz Biotechnology sc8215) 1:1000, NHERF-1 (BD, 611161) 1:1000, EZRIN (BD, 610603) 1:1000, hVps34 (SigmaV9764) 1:300, biotin (Abcam, ab1227) 1:2000, PKAr2a (BD, 610625) 1:500, Ubiquitin (Cell Signaling clone P4D1, #3936) 1:1000, CHIP (Calbiochem PC711) 1:500, Caspase-1 p10 (M-20) (Santa Cruz Biotechnology, sc-514) 1:200, NLRP3 (Abcam, ab4207), 1:500, IDO1 (monoclonal; cv152) 1:1000^[80], used as primary antibodies. Normalization was performed by probing the membrane with anti-β-actin (Cell Signaling, #4970) 1:1000, anti-Gapdh (Sigma-Aldrich, G8795) 1:1000 and anti-flottilin (Abcam ab15148) 1:1000 antibodies. Immunoprecipitations of endogenous proteins were performed on 500 μg of lysates from Caco-2 cells. The proteins were incubated for 12-18 h at 4° C. with 10 ug\ml of specific antibody followed by the addition of Protein A/G-agarose beads for 4 h at 4° C. […]

[2] = biological target: T1, PM-associated CFTR (Homo sapiens, UniProt P13569); assay: CFTR plasma membrane disposal in Caco-2 cells (membrane fractions); assay type: cell-based
T1 construct: Immunoprecipitations of endogenous proteins were performed on 500 μg of lysates from Caco-2 cells; host or cells: Caco-2, T84
Description: as §1
The whole lysate or membrane fraction proteins of cell lines and mice intestine homogenates were obtained from treated and untreated cells or mice as described. The equal amount of protein were resolved by SDS-PAGE gel and blotted with antibodies against: SQSTM1, (Sigma Aldrich, 108k4767) 1:1000, PPARγ (Santa Cruz Biotechnology, sc7273) 1:500, BECN1 (Abcam, ab58878) 1:1000, CFTR clone M3A7 (Abcam, ab4067) 1:500, phospho-ERK1/2 (php42/44, Cell Signaling Technology, #91101) 1:1000, UVRAG (Santa Cruz Biotechnology sc8215) 1:1000, NHERF-1 (BD, 611161) 1:1000, EZRIN (BD, 610603) 1:1000, hVps34 (SigmaV9764) 1:300, biotin (Abcam, ab1227) 1:2000, PKAr2a (BD, 610625) 1:500, Ubiquitin (Cell Signaling clone P4D1, #3936) 1:1000, CHIP (Calbiochem PC711) 1:500, Caspase-1 p10 (M-20) (Santa Cruz Biotechnology, sc-514) 1:200, NLRP3 (Abcam, ab4207), 1:500, IDO1 (monoclonal; cv152) 1:1000^[80], used as primary antibodies. Normalization was performed by probing the membrane with anti-β-actin (Cell Signaling, #4970) 1:1000, anti-Gapdh (Sigma-Aldrich, G8795) 1:1000 and anti-flottilin (Abcam ab15148) 1:1000 antibodies. Immunoprecipitations of endogenous proteins were performed on 500 μg of lysates from Caco-2 cells. The proteins were incubated for 12-18 h at 4° C. with 10 ug\ml of specific antibody followed by the addition of Protein A/G-agarose beads for 4 h at 4° C. The beads were then washed three times with lysis buffer and Laemmli's sample buffer was added to the samples. The membranes were then blotted with: CFTR clone CF3 (Abcam, ab2784) 1:1000, TG2 (clone CUB7402; NeoMarkers) 1:1000, CHIP (Calbiochem PC711) 1:500, Ubiquitin (Cell Signaling clone P4D1 3936), isopeptide (Abcam 422) 1:1000, PKAR2 (BD 610625) 1:500.
Protein from membrane fractionation were obtained as described. Cells were homogenized with a PotterElvehjem pestle and centrifuged at 2300×g for 15 min at 4° C. […]

[3] = biological target: T2, CFTR (Homo sapiens, UniProt P13569); assay: CFTR channel function in intestinal epithelial cells (forskolin-induced Isc in Ussing chambers; SPQ iodide efflux); assay type: cell-based; conditions: VX-770 10 μM, VX-532 20 μM, Genistein 10 μM; Caco-2 or T84 cells
T2 construct: Immunoprecipitations of endogenous proteins were performed on 500 μg of lysates from Caco-2 cells; host or cells: Caco-2, T84
Description: Human colon adenocarcinoma-derived Caco-2 and T84 cells (Barone, M. V. et al. 2014; Luciani, A. et al. 2010) were obtained from the ATCC. Cells were maintained in T25 flask in Modified Eagle Medium (MEM) for Caco-2, or Ham's F12+DMEM (1:1) for T84, supplemented with 10% fetal bovine serum (FBS), 2 mM Glutamine+1% Non Essential Amino Acids (NEAA) and the antibiotics penicillin\streptomycin (100 units/ml) (all reagents from Lonza). Caco-2 cells were grown in Transwells (Corning, 3470 or 3460) under the normal condition. Briefly, 8×10^4 or 5×10^5 cells were seeded in 6.5-mm diameter or 12-mm diameter, respectively, and grown until the RT reached 800 to 1,200 Ω·cm^2. Transwells with a pore size of 0.4 μm were used. Medium in both the apical and baso lateral chambers was changed every other day. Cells were treated with 20 μg/ml of either with the α-gliadin peptide comprising the P31-43 amino acid sequence of α-gliadin LGQQQPFPPQQPY (SEQ ID 1) (below referred to as P31-43), which is known to induce an enterocyte stress response (Meresse, B. et al.2009; Barone, M. V. et al. 2014; Luciani, A. et al. 2010), the T-cell activating α-gliadin peptide comprising the P57-68 amino acid sequence of α-gliadin (QLQPFPQPQLPY SEQ ID 2)) (below referred to as P57-68) (Maiuri, L., et al. 2003; Meresse, B. et al.2009; 30 Barone, M. V. et al. 2014), or the scrambled GAVAAVGVVAGA (SEQ ID 3) control peptide (below referred to as PGAV), or with different modified P31-43, either biotin-tagged or not, for different time points (from 1 h short challenge up to 24 h). Cells were also treated with 50 or 100 5 μg/ml of P57-68 or PGAV peptides for 3 h.
Caco-2 or T84 cells were also treated with: CFTR potentiators VX-770 (Ivacaftor) (10 μM) or VX-532 (20 μM) (Selleck chemicals) or Genistein (10 μM) (Verkman, A. S. et al. 2005; Jih, K. Y. et al. 2013) (Sigma-Aldrich) or in presence or absence of CFTR inhibitor172 (CFTRinh172, 20 μM).
Human colon adenocarcinoma-derived Caco-2 and T84 cells were obtained from the ATCC. Cells were maintained in T25 flask in Modified Eagle Medium (MEM) for Caco-2, or Ham's F12+DMEM (1:1) for T84, supplemented with 10% fetal bovine serum (FBS), 2 mM Glutamine+1% Non Essential Amino Acids (NEAA) and the antibiotics penicillin\streptomycin (100 units/ml) (all reagents from Lonza) (Luciani, A., et al. 2010. Cells were grown in Transwells (Corning, 3470 or 3460) under the normal condition (Luciani, A., et al. 2012). Briefly, 8×10^4 or 5×10^5 cells were seeded in 6.5-mm diameter or 12-mm diameter, respectively, and grown until the RT reached 800 to 1,200 Ω·cm2. Transwells with a pore size of 0.4 μm were used. Medium in both the apical and basolateral chambers was changed every other day. […]

T1 sequence (P13569 whole entry): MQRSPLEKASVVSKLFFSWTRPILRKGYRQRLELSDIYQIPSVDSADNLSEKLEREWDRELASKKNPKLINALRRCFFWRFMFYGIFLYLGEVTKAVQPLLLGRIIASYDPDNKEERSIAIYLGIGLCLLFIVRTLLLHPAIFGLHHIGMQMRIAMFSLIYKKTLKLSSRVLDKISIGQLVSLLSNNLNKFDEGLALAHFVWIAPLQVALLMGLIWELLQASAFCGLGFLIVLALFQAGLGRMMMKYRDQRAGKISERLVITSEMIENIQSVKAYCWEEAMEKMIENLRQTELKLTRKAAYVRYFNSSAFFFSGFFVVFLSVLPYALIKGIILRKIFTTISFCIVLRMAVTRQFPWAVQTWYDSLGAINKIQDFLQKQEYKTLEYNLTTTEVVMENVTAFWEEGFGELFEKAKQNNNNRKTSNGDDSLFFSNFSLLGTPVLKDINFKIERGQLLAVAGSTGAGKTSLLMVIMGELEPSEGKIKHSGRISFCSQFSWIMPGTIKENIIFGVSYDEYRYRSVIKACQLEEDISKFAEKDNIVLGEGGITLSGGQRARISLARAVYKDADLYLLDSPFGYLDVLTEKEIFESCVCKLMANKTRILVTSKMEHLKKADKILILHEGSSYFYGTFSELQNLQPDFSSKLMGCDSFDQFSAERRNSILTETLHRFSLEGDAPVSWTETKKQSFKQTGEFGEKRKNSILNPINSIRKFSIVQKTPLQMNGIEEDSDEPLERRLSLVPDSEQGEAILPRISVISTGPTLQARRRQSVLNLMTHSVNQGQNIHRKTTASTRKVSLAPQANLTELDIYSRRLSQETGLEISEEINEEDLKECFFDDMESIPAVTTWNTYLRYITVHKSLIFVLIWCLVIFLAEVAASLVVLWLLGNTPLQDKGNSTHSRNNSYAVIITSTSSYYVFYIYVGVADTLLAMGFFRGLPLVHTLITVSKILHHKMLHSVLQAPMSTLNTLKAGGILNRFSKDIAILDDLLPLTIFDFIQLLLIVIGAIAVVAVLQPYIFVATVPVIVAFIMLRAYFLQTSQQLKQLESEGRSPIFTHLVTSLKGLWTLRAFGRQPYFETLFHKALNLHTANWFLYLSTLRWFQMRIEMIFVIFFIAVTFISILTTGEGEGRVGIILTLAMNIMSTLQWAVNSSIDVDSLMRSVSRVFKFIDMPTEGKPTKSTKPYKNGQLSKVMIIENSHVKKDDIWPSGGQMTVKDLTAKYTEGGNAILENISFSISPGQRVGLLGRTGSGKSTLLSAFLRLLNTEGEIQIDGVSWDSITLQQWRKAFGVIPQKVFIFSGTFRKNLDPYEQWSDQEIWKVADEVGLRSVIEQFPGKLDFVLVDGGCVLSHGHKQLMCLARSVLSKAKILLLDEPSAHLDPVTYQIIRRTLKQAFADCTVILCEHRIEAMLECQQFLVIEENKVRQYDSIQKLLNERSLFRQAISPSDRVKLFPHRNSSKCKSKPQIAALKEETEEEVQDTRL
T2 sequence (P13569 whole entry): as above

## Cc1ccc(O)c(-c2cc(-c3ccccc3)[nH]n2)c1 [VX-532, 4-Methyl-2-(5-phenyl-1Hpyrazol-3-yl)-phenol]
[1]
  effect on P31-43-induced reduction of BECN1, hVps34, UVRAG, Rab5 and Rab7: counteracted
[2]
  effect on P31-43-induced reduction of PM-associated CFTR: counteracted
[3]
  prevention of P31-43 induced decrease of CFTR function: Prevents P31-43 Induced Inhibition of CFTR Function
